Measurements as given in ChEMBL document CHEMBL4665865, “New series of isoxazole derivatives targeting EGFR-TK: Synthesis, molecular modeling and antitumor evaluation” (Bioorg Med Chem, 2020).

Columns and labels:
HCT-116 [1] = experiment: Induction of cell cycle arrest in human HCT-116 cells assessed as cell debris at antiproliferative IC50 by PI staining based flow cytometric analysis (reference value: 1.42%); type: functional; details: time 24 hrs
HCT-116 [2] = experiment: Induction of cell cycle arrest in human HCT-116 cells assessed as aggregates at antiproliferative IC50 by PI staining based flow cytometric analysis (reference value: 1.61%); type: functional; details: time 24 hrs
MCF7 [3] = experiment: Induction of cell cycle arrest in human MCF7 cells assessed as cell debris at antiproliferative IC50 by PI staining based flow cytometric analysis (reference value: 1.63%); type: functional; details: time 24 hrs
MCF7 [4] = experiment: Induction of cell cycle arrest in human MCF7 cells assessed as aggregates at antiproliferative IC50 by PI staining based flow cytometric analysis (reference value: 2.11%); type: functional; details: time 24 hrs
HepG2 [5] = experiment: Induction of cell cycle arrest in human HepG2 cells assessed as aggregates at antiproliferative IC50 by PI staining based flow cytometric analysis (reference value: 1.52%); type: functional; details: time 24 hrs
Tubulin (Homo sapiens) = Tubulin (Homo sapiens) (UniProt P68371+Q9H4B7+P0DPH7+P68366+Q13509+Q71U36+P04350+Q3ZCM7+P07437+P68363+Q9BQE3+Q6PEY2+Q13885+Q9BVA1+Q9BUF5); experiment: Inhibition of tubulin polymerization (unknown origin) at 10 uM relative to control; type: protein-complex assay
[6] = biological target: T1, Casein kinase II subunit alpha (Homo sapiens, UniProt P68400); experiment: Inhibition of CK2 alpha (unknown origin) at 10 uM relative to control
Target sequence in this assay (P68400 whole entry, looked up): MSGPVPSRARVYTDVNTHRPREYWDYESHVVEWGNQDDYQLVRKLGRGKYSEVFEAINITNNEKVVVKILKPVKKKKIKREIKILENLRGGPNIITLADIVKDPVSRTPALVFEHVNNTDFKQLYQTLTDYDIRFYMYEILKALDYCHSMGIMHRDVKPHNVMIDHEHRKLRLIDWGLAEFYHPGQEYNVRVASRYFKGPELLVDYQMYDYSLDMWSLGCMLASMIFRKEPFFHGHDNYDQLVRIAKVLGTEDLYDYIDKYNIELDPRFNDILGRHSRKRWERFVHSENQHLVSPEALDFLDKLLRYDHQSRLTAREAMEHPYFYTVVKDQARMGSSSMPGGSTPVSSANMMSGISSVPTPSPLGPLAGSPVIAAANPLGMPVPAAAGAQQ

HCT-116 [7] = experiment: Induction of apoptosis in human HCT-116 cells assessed as decrease in Bcl-2 protein expression by Western blot analysis relative to untreated control; type: functional
MCF7 [8] = experiment: Induction of apoptosis in human MCF-7 cells assessed as decrease in Bcl-2 protein expression by Western blot analysis relative to untreated control; type: functional
HepG2 [9] = experiment: Induction of apoptosis in human HepG2 cells assessed as decrease in Bcl-2 protein expression by Western blot analysis relative to untreated control; type: functional
HCT-116 [10] = experiment: Induction of apoptosis in human HCT-116 cells assessed as increase in Bax protein expression by Western blot analysis relative to untreated control; type: functional
MCF7 [11] = experiment: Induction of apoptosis in human MCF-7 cells assessed as increase in Bax protein expression by Western blot analysis relative to untreated control; type: functional
MCF7 [12] = experiment: Induction of apoptosis in human MCF-7 cells assessed as increase in caspase-9 level after 24 hrs by Western blot analysis relative to untreated control; type: functional
HCT-116 [13] = experiment: Induction of apoptosis in human HCT-116 cells assessed as increase in caspase-3 level after 24 hrs by Western blot analysis relative to untreated control; type: functional
HepG2 [14] = experiment: Induction of apoptosis in human HepG2 cells assessed as increase in caspase-3 level after 24 hrs by Western blot analysis relative to untreated control; type: functional
HCT-116 [15] = experiment: Induction of apoptosis in human HCT-116 cells assessed as necrotic cells at antiproliferative IC50 incubated for 24 hrs by annexin V FITC and propidium iodide staining based flow cytometry (reference value: 0.59 %); type: functional
MCF7 [16] = experiment: Induction of apoptosis in human MCF7 cells assessed as late apoptotic cells at antiproliferative IC50 incubated for 24 hrs by annexin V FITC and propidium iodide staining based flow cytometry (reference value: 0.28 %); type: functional
HepG2 [17] = experiment: Induction of apoptosis in human HepG2 cells assessed as late apoptotic cells at antiproliferative IC50 incubated for 24 hrs by annexin V FITC and propidium iodide staining based flow cytometry (reference value: 0.31 %); type: functional
MCF7 [18] = experiment: Induction of apoptosis in human MCF7 cells assessed as early apoptotic cells at antiproliferative IC50 incubated for 24 hrs by annexin V FITC and propidium iodide staining based flow cytometry (reference value: 0.39 %); type: functional
HepG2 [19] = experiment: Induction of apoptosis in human HepG2 cells assessed as early apoptotic cells at antiproliferative IC50 incubated for 24 hrs by annexin V FITC and propidium iodide staining based flow cytometry (reference value: 0.61 %); type: functional
HCT-116 [20] = experiment: Induction of cell cycle arrest in human HCT-116 cells assessed as accumulation of cells at Pre-G1 phase at antiproliferative IC50 by PI staining based flow cytometric analysis (reference value: 1.19%); type: functional
HCT-116 [21] = experiment: Induction of cell cycle arrest in human HCT-116 cells assessed as accumulation of cells at G0/G1 phase at antiproliferative IC50 by PI staining based flow cytometric analysis (reference value: 48.52%); type: functional
MCF7 [22] = experiment: Induction of cell cycle arrest in human MCF7 cells assessed as accumulation of cells at G2/M phase at antiproliferative IC50 by PI staining based flow cytometric analysis (reference value: 10.95%); type: functional
MCF7 [23] = experiment: Induction of cell cycle arrest in human MCF7 cells assessed as accumulation of cells at Pre-G1 phase at antiproliferative IC50 by PI staining based flow cytometric analysis (reference value: 1.78%); type: functional
MCF7 [24] = experiment: Induction of cell cycle arrest in human MCF7 cells assessed as accumulation of cells at G0/G1 phase at antiproliferative IC50 by PI staining based flow cytometric analysis (reference value: 56.14%); type: functional
HepG2 [25] = experiment: Induction of cell cycle arrest in human HepG2 cells assessed as accumulation of cells at Pre-G1 phase at antiproliferative IC50 by PI staining based flow cytometric analysis (reference value: 1.44%); type: functional
HepG2 [26] = experiment: Induction of cell cycle arrest in human HepG2 cells assessed as accumulation of cells at G2/M phase at antiproliferative IC50 by PI staining based flow cytometric analysis (reference value: 14.09%); type: functional
Tubulin = experiment: Inhibition of tubulin polymerization (unknown origin) relative to control; type: protein-complex assay, Homo sapiens
HepG2 [27] = experiment: Induction of cell cycle arrest in human HepG2 cells assessed as accumulation of cells at G0/G1 phase at antiproliferative IC50 by PI staining based flow cytometric analysis (reference value: 51.88%); type: functional
DNA topoisomerase 2-beta = DNA topoisomerase 2-beta (Homo sapiens, UniProt Q02880); experiment: Inhibition of Topoisomerase II beta (unknown origin) relative to control
Sequence of DNA topoisomerase 2-beta (Q02880 whole entry): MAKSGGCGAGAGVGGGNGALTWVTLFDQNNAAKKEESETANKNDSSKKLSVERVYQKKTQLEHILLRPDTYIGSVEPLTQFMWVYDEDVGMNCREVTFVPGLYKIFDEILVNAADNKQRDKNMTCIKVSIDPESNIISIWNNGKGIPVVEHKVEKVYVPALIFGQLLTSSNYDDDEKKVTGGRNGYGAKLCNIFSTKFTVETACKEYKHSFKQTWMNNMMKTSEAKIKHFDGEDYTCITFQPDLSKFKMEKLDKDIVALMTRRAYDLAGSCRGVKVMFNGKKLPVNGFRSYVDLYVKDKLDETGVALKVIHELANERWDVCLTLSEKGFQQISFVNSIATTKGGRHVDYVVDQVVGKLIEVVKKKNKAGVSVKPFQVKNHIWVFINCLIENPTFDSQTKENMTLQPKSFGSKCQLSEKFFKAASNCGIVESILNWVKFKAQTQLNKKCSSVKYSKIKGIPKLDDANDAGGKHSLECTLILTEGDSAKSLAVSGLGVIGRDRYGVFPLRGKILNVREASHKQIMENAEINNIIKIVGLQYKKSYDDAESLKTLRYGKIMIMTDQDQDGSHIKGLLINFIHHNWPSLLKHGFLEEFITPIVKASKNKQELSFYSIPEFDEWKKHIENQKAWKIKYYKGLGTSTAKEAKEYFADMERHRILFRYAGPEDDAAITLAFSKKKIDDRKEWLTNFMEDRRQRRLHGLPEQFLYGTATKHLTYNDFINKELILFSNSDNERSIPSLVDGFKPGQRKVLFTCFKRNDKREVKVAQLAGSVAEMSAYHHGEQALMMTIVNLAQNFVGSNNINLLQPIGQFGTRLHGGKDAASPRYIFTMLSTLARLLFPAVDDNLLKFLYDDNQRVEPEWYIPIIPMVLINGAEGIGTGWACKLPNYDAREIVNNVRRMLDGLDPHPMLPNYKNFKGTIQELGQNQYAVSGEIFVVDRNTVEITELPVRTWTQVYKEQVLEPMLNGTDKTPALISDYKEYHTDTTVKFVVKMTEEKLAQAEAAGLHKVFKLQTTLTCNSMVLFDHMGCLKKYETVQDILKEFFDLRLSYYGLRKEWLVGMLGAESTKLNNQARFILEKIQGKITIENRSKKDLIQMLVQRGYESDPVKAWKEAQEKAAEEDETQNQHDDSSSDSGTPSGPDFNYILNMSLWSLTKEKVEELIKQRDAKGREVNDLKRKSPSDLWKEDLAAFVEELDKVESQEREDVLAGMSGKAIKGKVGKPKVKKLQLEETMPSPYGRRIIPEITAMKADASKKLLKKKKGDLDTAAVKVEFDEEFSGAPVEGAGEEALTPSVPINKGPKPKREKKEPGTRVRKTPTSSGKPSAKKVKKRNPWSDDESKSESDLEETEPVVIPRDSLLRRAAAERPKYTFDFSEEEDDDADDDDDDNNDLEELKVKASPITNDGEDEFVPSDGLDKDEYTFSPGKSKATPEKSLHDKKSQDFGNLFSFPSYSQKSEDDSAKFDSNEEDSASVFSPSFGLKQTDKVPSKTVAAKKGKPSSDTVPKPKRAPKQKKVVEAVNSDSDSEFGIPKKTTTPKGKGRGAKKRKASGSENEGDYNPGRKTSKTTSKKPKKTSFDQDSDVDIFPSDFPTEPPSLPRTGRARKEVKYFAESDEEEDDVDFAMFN

[28] = biological target: T1, Casein kinase II subunit alpha; experiment: Inhibition of CK2 alpha (unknown origin) relative to control
Target sequence in this assay (P68400 whole entry): as the sequence (P68400 whole entry, looked up) above

[29] = biological target: Vascular endothelial growth factor receptor 2 (Homo sapiens, UniProt P35968)
Sequence of Vascular endothelial growth factor receptor 2 (P35968 whole entry): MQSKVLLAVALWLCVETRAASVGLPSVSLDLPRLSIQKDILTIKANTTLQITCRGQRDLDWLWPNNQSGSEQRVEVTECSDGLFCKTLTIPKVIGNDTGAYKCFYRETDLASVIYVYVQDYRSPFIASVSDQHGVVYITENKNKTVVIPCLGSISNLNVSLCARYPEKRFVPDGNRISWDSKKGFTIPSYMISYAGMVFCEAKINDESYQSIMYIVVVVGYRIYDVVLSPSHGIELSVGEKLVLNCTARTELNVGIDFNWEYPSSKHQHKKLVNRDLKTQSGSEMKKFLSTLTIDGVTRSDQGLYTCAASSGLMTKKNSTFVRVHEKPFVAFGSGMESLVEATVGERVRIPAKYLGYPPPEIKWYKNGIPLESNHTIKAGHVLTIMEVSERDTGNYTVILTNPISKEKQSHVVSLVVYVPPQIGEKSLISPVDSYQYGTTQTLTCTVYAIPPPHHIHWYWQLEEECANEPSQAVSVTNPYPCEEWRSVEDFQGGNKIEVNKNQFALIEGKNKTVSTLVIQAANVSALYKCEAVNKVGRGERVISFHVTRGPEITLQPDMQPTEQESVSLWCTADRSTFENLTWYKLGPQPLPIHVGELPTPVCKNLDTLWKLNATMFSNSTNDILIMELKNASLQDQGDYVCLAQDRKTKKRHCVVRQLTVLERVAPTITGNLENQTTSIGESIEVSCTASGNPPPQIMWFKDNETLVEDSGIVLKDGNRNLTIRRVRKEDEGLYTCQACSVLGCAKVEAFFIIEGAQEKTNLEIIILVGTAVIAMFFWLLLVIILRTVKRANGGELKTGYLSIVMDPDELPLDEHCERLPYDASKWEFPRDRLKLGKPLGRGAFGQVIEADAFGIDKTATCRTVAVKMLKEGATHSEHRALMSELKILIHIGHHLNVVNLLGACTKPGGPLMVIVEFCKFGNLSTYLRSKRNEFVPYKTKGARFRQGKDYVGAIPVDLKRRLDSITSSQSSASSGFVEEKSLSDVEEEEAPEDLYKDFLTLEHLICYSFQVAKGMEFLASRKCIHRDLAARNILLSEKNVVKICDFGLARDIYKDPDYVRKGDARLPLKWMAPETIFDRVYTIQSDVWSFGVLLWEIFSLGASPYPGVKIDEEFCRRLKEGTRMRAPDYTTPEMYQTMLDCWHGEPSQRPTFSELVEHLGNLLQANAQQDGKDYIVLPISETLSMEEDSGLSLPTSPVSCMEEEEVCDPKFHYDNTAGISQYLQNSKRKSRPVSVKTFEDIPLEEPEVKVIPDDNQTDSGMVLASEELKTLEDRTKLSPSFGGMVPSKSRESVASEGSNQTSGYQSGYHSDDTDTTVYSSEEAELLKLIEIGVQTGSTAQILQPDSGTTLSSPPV
Description: Inhibition of VEGFR-2 (unknown origin) relative to control

WISH = experiment: Cytotoxicity against human WISH cells assessed as reduction in cell viability by MTT assay; type: cell-based
HCT-116 [30] = experiment: Antitumor activity against human HCT-116 cells assessed as inhibition of cell viability by MTT assay; type: functional, cell-based
HCT-116 [31] = experiment: Induction of cell cycle arrest in human HCT-116 cells assessed as accumulation of cells at S phase at antiproliferative IC50 by PI staining based flow cytometric analysis (reference value: 35.61%); type: functional
HCT-116 [32] = experiment: Induction of cell cycle arrest in human HCT-116 cells assessed as accumulation of cells at G2/M phase at antiproliferative IC50 by PI staining based flow cytometric analysis (reference value: 15.87%); type: functional
HepG2 [33] = experiment: Induction of cell cycle arrest in human HepG2 cells assessed as accumulation of cells at S phase at antiproliferative IC50 by PI staining based flow cytometric analysis (reference value: 34.03%); type: functional

Q: Which Activity (HCT-116 [1]) does the source give for Cc1cc(NC2=NC(=O)/C(=C\c3c4ccccc4cc4ccccc34)S2)no1 here?
A: 1.92%

Q: What about the Activity (HCT-116 [2]) of the same compound?
A: 1.74%

Q: And the Activity (MCF7 [3])?
A: 2.08%

Q: What about the Activity (MCF7 [4]) of the same compound?
A: 2.11%

Q: And the Activity (HepG2 [5])?
A: 1.55%

Q: What about the inhibition (Tubulin (Homo sapiens)) of the same compound?
A: 57.7%

Q: And the inhibition [6]?
A: 76.3%

Q: What about the “fold change (FC)” value (HCT-116 [7]) of the same compound?
A: 0.64

Q: What about the “fold change (FC)” value (MCF7 [8]) of the same compound?
A: 0.62

Q: What about the “fold change (FC)” value (HepG2 [9]) of the same compound?
A: 0.56

Q: And the “fold change (FC)” value (HCT-116 [10])?
A: 6.9

Q: And the “fold change (FC)” value (MCF7 [11])?
A: 7

Q: And the “fold change (FC)” value (MCF7 [12])?
A: 4.7

Q: And the “fold change (FC)” value (HCT-116 [13])?
A: 14.2

Q: What about the “fold change (FC)” value (HepG2 [14]) of the same compound?
A: 5.4

Q: What about the Activity (HCT-116 [15]) of the same compound?
A: 2.27%

Q: What about the Activity (MCF7 [16]) of the same compound?
A: 7.82%

Q: And the Activity (HepG2 [17])?
A: 8%

Q: And the Activity (MCF7 [18])?
A: 6.28%

Q: What about the Activity (HepG2 [19]) of the same compound?
A: 3.51%

Q: And the Activity (HCT-116 [20])?
A: 22.69%

Q: What about the Activity (HCT-116 [21]) of the same compound?
A: 29.67%

Q: And the Activity (MCF7 [22])?
A: 29.3%

Q: What about the Activity (MCF7 [23]) of the same compound?
A: 16.41%

Q: And the Activity (MCF7 [24])?
A: 44.25%

Q: What about the Activity (HepG2 [25]) of the same compound?
A: 13.3%

Q: What about the Activity (HepG2 [26]) of the same compound?
A: 36.93%

Q: And the IC50 (Tubulin)?
A: 3610 nM

Q: What about the Activity (HepG2 [27]) of the same compound?
A: 38.11%

Q: What about the IC50 (DNA topoisomerase 2-beta) of the same compound?
A: 130 nM

Q: What about the IC50 [28] of the same compound?
A: 171 nM

Q: What about the IC50 [29] of the same compound?
A: 87 nM

Q: And the IC50 (WISH)?
A: 53200 nM

Q: And the IC50 (HCT-116 [30])?
A: 7720 nM

Q: What about the Activity (HCT-116 [31]) of the same compound?
A: 27.44%

Q: And the Activity (HCT-116 [32])?
A: 42.89%

Q: And the Activity (HepG2 [33])?
A: 24.96%
